In test [1] the target is IL-17A(FLAG-Tagged): IL-17RA(His-Tagged) (Homo sapiens, UniProt Q16552, K93Q). Kind of test: IL-17A(FLAG-Tagged): IL-17RA(His-Tagged) Binding Disruption Eu-HTRF Assay. To be noted: IL-17A/IL-17RA binding disruption, simple average if tested more than once. The essentials:
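IC50 comes from a one-site competition fit of the HTRF 665/620 nm ratio. Compound dilutions (2-fold, 22 points) were held 1 h rt with FLAG-tagged IL-17A dimer, then His-tagged IL-17RA plus Eu-cryptate anti-FLAG and D2 anti-His antibodies were added for 2 h rt.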

Test [2] concerns IL-17A-induced G-CSF production in human normal keratinocyte (NHK). The test can be described thus: NHK Assay: IL-17A-induced G-CSF production in human normal keratinocytes. The class given is cell-based. To be noted: 24 h, adult normal human keratinocytes, IL-17A 5 ng/mL, simple average if tested more than once. The essentials:
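Compound is first combined with recombinant human IL-17A for 1 h at rt, and the mix is added to adult normal human keratinocytes so that IL-17A is 5 ng/mL. After 24 h at 37° C in 5% FBS, G-CSF released into the medium is read by HTRF and IC50 derived.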

The structures appear in SMILES notation.

Chain of UniProt Q16552 (Q16552 with tags, fused parts or gaps K93Q): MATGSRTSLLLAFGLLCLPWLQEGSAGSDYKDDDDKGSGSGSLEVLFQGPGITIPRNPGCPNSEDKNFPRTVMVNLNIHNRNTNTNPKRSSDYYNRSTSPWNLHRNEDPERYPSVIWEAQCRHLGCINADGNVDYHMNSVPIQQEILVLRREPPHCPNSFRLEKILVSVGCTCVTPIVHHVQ

As usually defined, the IC50 is the concentration at which inhibition is half-maximal. A high value points to weaker potency. In the case of `Cc1nonc1C(=O)N[C@H](c1cn2ncc([C@H](NC(=O)CC3CCCC3(F)F)C3CC3)cc2n1)C1CCC(F)(F)CC1` (stereo partly drawn) [Example 291, N-((1S)-(7-((1R)-Cyclopropyl(2-(2,2-difluorocyclopentyl)acetamido)methyl)imidazo[1,2-b]pyridazin-2-yl)(4,4-difluorocyclohexyl)methyl)-4-methyl-1,2,5-oxadiazole-3-carboxamide], the IC50 in test [1] is 370 nM; in test [2] (Homo sapiens, Keratinocyte), 4000 nM.
On to `O=C(CCC(F)(F)F)N[C@@H](c1cnn2cc([C@@H](NC(=O)[C@H]3CC34CCC4)C3CCC(F)(F)CC3)nc2c1)C1CC1` (relative stereo) [Example 367, (S*)—N—((S)-(7-((R*)-Cyclopropyl(4,4,4-trifluorobutanamido)methyl)imidazo[1,2-b]pyridazin-2-yl)(4,4-difluorocyclohexyl)methyl)spiro[2.3]hexane-1-carboxamide], for which the IC50 in test [1] was found to be 240 nM; in test [2] (Homo sapiens, Keratinocyte), 630 nM.
Taken in the same sequence, the figures for `O=C(CCC(F)(F)F)N[C@@H](c1cnn2cc([C@@H](NC(=O)c3cnn(CCCF)n3)C3CCC(F)(F)CC3)nc2c1)C1CC1` [Example 113, N—((S)-(7-((R)-Cyclopropyl(4,4,4-trifluorobutanamido)methyl)imidazo[1,2-b]pyridazin-2-yl)(4,4-difluorocyclohexyl)methyl)-2-(3-fluoropropyl)-2H-1,2,3-triazole-4-carboxamide] were 430 nM and 400 nM.
Regarding `Cc1oncc1C(=O)N[C@H](c1cn2ncc([C@H](NC(=O)CCC(F)(F)F)C3CC3)cc2n1)C1CCC(F)(F)CC1` [Example 159, N—((S)-(7-((R)-Cyclopropyl(4,4,4-trifluorobutanamido)methyl)imidazo[1,2-b]pyridazin-2-yl)(4,4-difluorocyclohexyl)methyl)-5-methylisoxazole-4-carboxamide], the IC50 in test [1] was 100 nM; in test [2] (Homo sapiens, Keratinocyte), 260 nM.
Take `Cc1nonc1C(=O)N[C@H](c1cn2ncc([C@H](NC(=O)CC(C)C(F)F)C3CC3)cc2n1)C1CCC(F)(F)CC1` (single isomer, unassigned) [Example 265, N—((S)-(7-((R)-Cyclopropyl((S*)-4,4-difluoro-3-methylbutanamido)methyl)imidazo[1,2-b]pyridazin-2-yl)(4,4-difluorocyclohexyl)methyl)-4-methyl-1,2,5-oxadiazole-3-carboxamide]: the IC50 in test [1] amounted to 210 nM; in test [2], 1100 nM.
As to `CC(C)n1nccc1C(=O)N[C@H](c1cn2ncc([C@H](NC(=O)COCC(F)F)C3CC3)cc2n1)C1CCC(F)(F)CC1` [Example 305, N—((S)-(7-((R)-Cyclopropyl(2-(2,2-difluoroethoxy)acetamido)methyl)imidazo[1,2-b]pyridazin-2-yl)(4,4-difluorocyclohexyl)methyl)-1-isopropyl-1H-pyrazole-5-carboxamide], the IC50 came out at 140 nM in test [1] and 1100 nM in test [2] (Homo sapiens, Keratinocyte).
In the case of `Cc1cc(C(=O)N[C@H](c2cn3ncc([C@H](NC(=O)CCC(F)(F)F)C4CC4)cc3n2)C2CCC(F)(F)CC2)n(C(C)C)n1` [Example 78, N—((S)-(7-((R)-Cyclopropyl(4,4,4-trifluorobutanamido)methyl)imidazo[1,2-b]pyridazin-2-yl)(4,4-difluorocyclohexyl)methyl)-1-isopropyl-3-methyl-1H-pyrazole-5-carboxamide], the IC50 in test [1] amounted to 260 nM; in test [2] (Homo sapiens, Keratinocyte) it was 330 nM.
As to `O=C(CC1CC(F)(F)C1)N[C@@H](c1cnn2cc([C@@H](NC(=O)c3nonc3C(O)C3CC3)C3CCC(F)(F)CC3)nc2c1)C1CC1` (single isomer, unassigned) [Example 401, N—((S)-(7-((R)-Cyclopropyl(2-(3,3-difluorocyclobutyl)acetamido)methyl)imidazo[1,2-b]pyridazin-2-yl)(4,4-difluorocyclohexyl)methyl)-4-((R*)-cyclopropyl(hydroxy)methyl)-1,2,5-oxadiazole-3-carboxamide], the IC50 in test [1] was determined as 150 nM; in test [2] (Homo sapiens, Keratinocyte) it was 57 nM.
The corresponding values for `CC(C)Oc1nocc1C(=O)N[C@H](c1cn2ncc([C@H](NC(=O)CCC(F)(F)F)C3CC3)cc2n1)C1CCC(F)(F)CC1` [Example 284, N—((S)-(7-((R)-Cyclopropyl(4,4,4-trifluorobutanamido)methyl)imidazo[1,2-b]pyridazin-2-yl)(4,4-difluorocyclohexyl)methyl)-3-isopropoxyisoxazole-4-carboxamide] are 220 nM and 920 nM.
The corresponding values for `[2H]C([2H])([2H])C([2H])([2H])n1nccc1C(=O)N[C@H](c1cn2ncc([C@H](CC)NC(=O)CC3CC(F)(F)C3)cc2n1)C1CCC(F)(F)CC1` (relative stereo) [Example 508, N—((S)-(7-((S*)-1-(2-(3,3-Difluorocyclobutyl)acetamido)propyl)imidazo[1,2-b]pyridazin-2-yl)(4,4-difluorocyclohexyl)methy)-1-(ethyl-d5)-1H-pyrazole-5-carboxamide] are 1200 nM and 10000 nM.
Consider `CC(C)n1nccc1C(=O)N[C@H](c1cn2ncc([C@H](NC(=O)CCC3CC3(F)F)C3CC3)cc2n1)C1CCC(F)(F)CC1` (single isomer, unassigned) [Example 271, N—((S)-(7-((R)-Cyclopropyl(3-((S*)-2,2-difluorocyclopropyl)propanamido)methyl)imidazo[1,2-b]pyridazin-2-yl)(4,4-difluorocyclohexyl)methyl)-1-isopropyl-1H-pyrazole-5-carboxamide], for which the IC50 turned out to be 140 nM in test [1] and 67 nM in test [2].
Taken in the same sequence, the figures for `Cc1nonc1C(=O)N[C@H](c1cn2ncc(C(NC(=O)CCC(F)(F)F)C(F)F)cc2n1)C1CCC(F)(F)CC1` (single isomer, unassigned) [Example 516, N—((S)-(7-((R*)-2,2-Difluoro-1-(4,4,4-trifluorobutanamido)ethyl)imidazo[1,2-b]pyridazin-2-yl)(4,4-difluorocyclohexyl)methyl)-4-methyl-1,2,5-oxadiazole-3-carboxamide] were 1900 nM and over 20000 nM.
In the case of `O=C(CCC(F)F)N[C@@H](c1cnn2cc([C@@H](NC(=O)c3nonc3C3CC3)C3CCC(F)(F)CC3)nc2c1)C1CC1` [Example 288, 4-Cyclopropyl-N—((S)-(7-((R)-cyclopropyl(4,4-difluorobutanamido)methyl)imidazo[1,2-b]pyridazin-2-yl)(4,4-difluorocyclohexyl)methyl)-1,2,5-oxadiazole-3-carboxamide], the IC50 stood at 71 nM in test [1] and 200 nM in test [2] (Homo sapiens, Keratinocyte).
The corresponding values for `CC(C)n1nccc1C(=O)N[C@@H](COC(C)(C)C(F)(F)F)c1cn2ncc([C@H](NC(=O)CC3CC(F)(F)C3)C3CCOCC3)cc2n1` [Example 541, N—((R)-1-(7-((R)-(2-(3,3-Difluorocyclobutyl)acetamido)(tetrahydro-2H-pyran-4-yl)methyl)imidazo[1,2-b]pyridazin-2-yl)-2-((1,1,1-trifluoro-2-methylpropan-2-yl)oxy)ethyl)-1-isopropyl-1H-pyrazole-5-carboxamide] are 130 nM and 29 nM.
